Test results taken from patent publication US20240391912A1, “MORPHIC FORMS OF CFT7455 AND METHODS OF MANUFACTURE THEREOF” (C4 THERAPEUTICS, INC., priority 2022, published 2024).
In brackets after ≈: the same amount, converted by molar mass.

Tests used:
[1] = Approximate solubility of Compound 5 polymorphs in EtOH:DCM (v:v=1:4); assay type: physicochemical; settings: EtOH:DCM (v:v = 1:4), 25° C.
Experimental: Four polymorphs (Form V, Form VI, Form VII and Form VIII) were weighed respectively and a suitable amount of solvent mixture EtOH:DCM (v:v=1:4) was added. The obtained samples were stirred at a rate of 400 rpm at 25° C.

[2] = Bulk stability of Compound 5 Form VI and Form VIII at 25° C./60% RH, open container, 1 week (XRPD, HPLC, color); assay type: physicochemical; settings: listed as Form VIII
Experimental: Compound 5 Form VI and Form VIII were placed at 25° C./60% RH in an open container over 1 week. Samples after the stress were characterized by XRPD and HPLC and inspected for color change.

[3] = Solubility of Compound 5 Form VI and Form VIII at 25° C., equilibration for 24 hours (HPLC; XRPD of residual solids); assay type: physicochemical
Experimental: 11 mg (for 20 mg/mL target concentration) or 22 mg (for 50-60 mg/mL target concentration) of Compound 5 Form VI and Form VIII (equivalent to 10 mg or 20 mg of anhydrate free base) was weighed into a 4 mL glass vial, respectively. Up to 0.5 mL of potential eluent medium was added. The obtained suspensions/solutions were stirred at 25° C. at 400 rpm for 24 hours and then centrifuged at 25° C. at 14,000 rpm for 5 minutes. The residual solids were characterized by XRPD to determine the physical form. The supernatants (0.1 mL) were evaporated at about 22-25° C./30-60% RH.

[4] = Characterization of polymorphs and pseudo-polymorphs of Compound 5; assay type: physicochemical
[5] = Crystallization of Compound 1 at room temperature by slow evaporation (XRPD); assay type: physicochemical; settings: 25° C./92% RH for 2 days
Experimental: About 20 mg of Compound 1 Form I (free form) was dissolved and filtered by 0.45 μm nylon filter. Obtained solutions were evaporated slowly at ambient condition. Solid residues were examined for their polymorphic form.

[6] = Scale-up experiment (200 mg) and characterization of new polymorphs of Compound 1; assay type: physicochemical; settings: for X-ray diffraction: 3-40° (2 theta), XRPD method 1; for Thermogravimetry weight loss / water corresponding to TGA weight loss: TGA
Experimental: Scale-up 1: About 200 mg of Compound 1 Form I was dissolved in 10 mL THF/Water (95:5, v:v) at 40° C. […] Compound 1 Form IV was obtained. It was subjected to characterization.
Scale-up 2: About 200 mg of Compound 1 Form I was dissolved in 10 mL THF/Water (95:5, v:v) at 40° C. […] It was subjected to characterization.

[7] = Competitive equilibration experiment of Compound 1 Form I and Form IV for 1 week; assay type: physicochemical; settings: for XRPD / form obtained in competitive equilibration: 1 week; for form obtained in competitive equilibration: 25° C.
Experimental: About 10 mg of Compound 1 Form I and 10 mg Compound 1 Form IV were added to 0.8 mL saturated solution in selected solvent. Obtained suspensions were stirred at 400 rpm and 25° C. for 1 week. Solids obtained were separated by filtration and characterized by XRPD.

[8] = test system: OCI-LY10 human DLBCL intracranial xenografts; experiment: OCI-LY10 human DLBCL intracranial xenograft study, survival; settings: for Median Survival (Days), ± SEM / Survival time extension (%): Rituximab, i.v., QW
Experimental: Agents were tested in the OCI-LY10 human DLBCL intracranial model. […] Rituximab was administered from day 1 via i.v. once per week. Rituximab was dosed at 10 and 30 mg/kg. Individual mouse was euthanized once its body weight loss was over 20%.
The cells growing in an exponential growth phase were harvested and counted for tumor inoculation.
99 CB17 SCID mice were inoculated by intracranial injection with OCI-LY10 cells (1×10^6) for tumor development.
Tumor inoculation: Intraperitoneally injected avertin at dosage of 240 mg/kg to anaesthetize the CB17 SCID mice. Fixed the head of the anaesthetized mice to the brain solid positioner, sterilized the head skin with 70% alcohol. […] Punched a hole about 2 mm right of the anterior fontanel and 1 mm ahead the coronal on the skull with a 25 G needle. Cell suspensions were mixed and certain amount was sucked into the 5 μL injector slowly to avoid bubble formation. The cells were swapped around the needle with alcohol to avoid extracranial tumor genesis. The needle was stuck vertically into the formed hold and 5 μL of cell suspension containing 1×10^6 OCI-LY10 cells was slowly injected for over 1 minute. The injector was then held for another 1 minute and then pulled back to decrease the drainage of the cells suspension. The skin was closed with tweezers and then sewed. Meloxicam was then injected 30 min after the surgery at dosage of 5 mg/kg to relieve the pain. The animals were kept under monitoring until they were awake.
Animals were grouped for treatment on day 7 after tumor inoculation.
At the time of routine monitoring, the animals were daily checked for any effects of tumor growth and treatments on normal behavior such as mobility, food and water consumption (by looking only), body weight gain/loss (body weights were measured twice weekly), eye/hair matting and any other abnormal effect as stated in the protocol. Death and observed clinical signs were recorded on the basis of the numbers of animals within each subset.

[9] = THF/water (v:v = 1:2.5), 25° C., 24 hours, target conc. 20 mg/mL, listed as Form VIII

O=C1CCC(N2C(=O)c3cccc4c(Cc5ccc(CN6CCOCC6)cc5)ccc2c34)C(=O)N1 (racemic) [Compound 5 Form VIII]
Approximate solubility (visual appearance) ([1]; concentration 10 mg/mL, listed as Form VIII): Few solids
Approximate solubility (visual appearance) ([1]; concentration 20 mg/mL, listed as Form VIII): Few solids
bulk stability, physical (form) [2]: converted to Form V
Bulk (HPLC) Purity ([2]; solid state, initial purity 93.1% (Form VI), 95.6% (Form VIII)): 95.6%
Bulk (XRPD) ([2]; solid state): Form V
solubility ([3]; EtOH/DCM (v:v = 1:4), 25° C., 24 hours, target conc. 50-60 mg/mL, LOQ 0.8 μg/mL, listed as Form VIII): 39 mg/mL (≈ 83.1 mM)
physical form after solubility test ([3]; EtOH:DCM (v:v=1:4), 25° C., 24 h): Physical mixture of Form V and Form VI
XRPD of residual solids ([3]; MeOH/DCM (v:v = 1:2), 25° C., 24 hours, target conc. 50-60 mg/mL): Form V
physical form after solubility test ([3]; MeOH:DCM (v:v=1:2) and THF:water (v:v=1:2.5), 25° C., 24 h): converted to Form V
solubility ([3]; THF/IPA (v:v = 1:2), 25° C., 24 hours, target conc. 20 mg/mL, listed as Form VIII): 1 mg/mL (≈ 2.13 mM)
XRPD of residual solids [3, 9]: Form V
solubility [3, 9]: 0.5 mg/mL (≈ 1.06 mM)
physical form after solubility test ([3]; THF:2-propanol (v:v=1:2) and THF:Heptane (v:v=1:2), 25° C., 24 h): converted to Form VI
solubility ([3]; in EtOH/DCM (v:v=1:4), about 25° C., 24 h, listed as Form VIII): ~39 mg/mL (≈ 83.1 mM)
solubility ([3]; in MeOH:DCM (v:v=1:2) and EtOH:DCM (v:v=1:4), 25° C. for 24 h, listed as Form VIII): 30 to 40 mg/mL
Dehydration and evaporation of solvent from (by DSC) ([4]; DSC): about 8° C.;
Enthalpy (by DSC) ([4]; DSC, listed as Form VIII): 105 J/g
Melting onset Tonset (by DSC) ([4]; DSC, listed as Form VIII): Tonset 231.4° C.,
Weight loss (by TGA) ([4]; at 200° C.): 4.7% at 200 °C
Residual ion (by IC): Br− ([4]; listed as Form VIII): Br^−: 0.01 equiv.
Residual ion (by IC): Cl− ([4]; listed as Form VIII): Cl^−: 0.005 equiv.;
Residual ion (by IC): Li+ ([4]; listed as Form VIII): Li^+: 0.04 equiv.;
Residual ion (by IC): Na+ ([4]; listed as Form VIII): Na^+: 0.01 equiv.

O=C1CCC(N2C(=O)c3cccc4c(Cc5ccc(CN6CCOCC6)cc5)ccc2c34)C(=O)N1 (racemic) [Compound 5 Form VII]
Approximate solubility (visual appearance) ([1]; concentration 10 mg/mL, listed as Form VII): Suspension
Approximate solubility (visual appearance) ([1]; concentration 20 mg/mL, listed as Form VII): Suspension
Residual solvent (by 1H-NMR): NMP ([4]; 2 unknown peaks): 1.6 equiv. NMP;

O=C1CC[C@H](N2C(=O)c3cccc4c(Cc5ccc(CN6CCOCC6)cc5)ccc2c34)C(=O)N1 [Compound 1 Form II, (S)-3-(6-(4-(morpholinomethyl)benzyl)-2-oxobenzo[cd]indol-1(2H)-yl)piperidine-2,6-dione]
Notes (form stability under humidity) [5]: No form change at 25° C./92% RH
Stoichiometry: MeOH ([6]; 1H-NMR): 1.0 equiv.
Stoichiometry: DCM ([6]; 1H-NMR, listed as Form II): 0.3% DCM and
X-ray diffraction ([6]; listed as Form II): Crystalline
Form change at 25° C./92% RH ([6]; 25° C./92% RH for 2 days): No form change
DSC: Methanol desolvation ([6]; DSC, 10° C./min): at 103.1 °C
Thermogravimetry weight loss ([6]; 10° C./min, at 125° C.): About 7.1%

O=C1CC[C@H](N2C(=O)c3cccc4c(Cc5ccc(CN6CCOCC6)cc5)ccc2c34)C(=O)N1 [Compound 1 Form III, (S)-3-(6-(4-(morpholinomethyl)benzyl)-2-oxobenzo[cd]indol-1(2H)-yl)piperidine-2,6-dione]
X-ray diffraction ([6]; listed as Form III): Crystalline
Thermogravimetry weight loss ([6]; 10° C./min, at 120° C.): About 5.8%
water corresponding to TGA weight loss ([6]; 10° C./min, listed as Form III): 120 °C (1.5 equiv.

O=C1CC[C@H](N2C(=O)c3cccc4c(Cc5ccc(CN6CCOCC6)cc5)ccc2c34)C(=O)N1 [Compound 1 Form IV, (S)-3-(6-(4-(morpholinomethyl)benzyl)-2-oxobenzo[cd]indol-1(2H)-yl)piperidine-2,6-dione]
X-ray diffraction ([6]; listed as Form IV): Crystalline
Thermogravimetry weight loss ([6]; 10° C./min, at 105° C.): About 1.3%
water corresponding to TGA weight loss ([6]; 10° C./min, listed as Form IV): 105 °C (0.4 equiv.
stability of the form ([7]; THF/water systems with high water activity): stable

O=C1CC[C@H](N2C(=O)c3cccc4c(Cc5ccc(CN6CCOCC6)cc5)ccc2c34)C(=O)N1 [Form I + Form IV]
XRPD ([7]; THF/Water (63.9:36.1, v:v), a.w. 1.0, 25° C.): Form IV
XRPD ([7]; THF/Water (86.9:13.1, v:v), a.w. 0.8, 25° C.): Form IV
XRPD ([7]; THF/Water (92.3:7.7, v:v), a.w. 0.6, 25° C.): Form IV
XRPD ([7]; THF/Water (97.0:3.0, v:v), a.w. 0.3, 25° C.): Form I
XRPD ([7]; THF/Water (98.1:1.9, v:v), a.w. 0.2, 25° C.): Form I
XRPD ([7]; THF/Water (99.1:0.9, v:v), a.w. 0.1, 25° C.): Form I

O=C1CC[C@H](N2C(=O)c3cccc4c(Cc5ccc(CN6CCOCC6)cc5)ccc2c34)C(=O)N1 [Form I and Form IV]
form obtained in competitive equilibration ([7]; DMSO/water system, all selected water activity mixtures): physical mixtures of Form I and Form IV
form obtained in competitive equilibration ([7]; THF/water system, a.w.≤0.3): Form I (anhydrate)
form obtained in competitive equilibration ([7]; THF/water system, water activity (a.w.)≥0.6): Form IV (hydrate)

rituximab: CD20 inhibitor; targeted antibody
Median Survival (Days), ± SEM ([8]; 10 mg/kg): 17.00 ± 0.46 days
Survival time extension (%) ([8]; 10 mg/kg): 21.4%
Median Survival (Days), ± SEM ([8]; 30 mg/kg): 16.00 ± 0.94 days
Survival time extension (%) ([8]; 30 mg/kg): 14.3%
extension of survival time ([8]; rituximab 10 mg/kg i.v. once per week, p=0.001): 21.4%
extension of survival time ([8]; rituximab 30 mg/kg i.v. once per week, p=0.085): 14.3%
